Measurements: article PMC6270838, “Design and Synthesis of C-Terminal Modified Cyclic Peptides as VEGFR1 Antagonists” (Molecules, 2014)
Bridge positions count the residues as written; N and C are the ends. Peptide text beside a SMILES is read from it. * marks the point of attachment. X1 = COc1ccc2c(CN*)cc(=O)oc2c1

Legend:
[1] = molecular target: recombinant human VEGFR1 extracellular domains (ECD) (Homo sapiens, UniProt P17948); conditions: average of at least 3 tests each in triplicate
Description: Peptides VEGFR1 binding ability was determined by a competition ELISA test. Briefly, recombinant human VEGFR1 extracellular domains (ECD) were adsorbed on the surface of a 96-well microplate. After washing and BSA blocking, the plate was incubated with different compounds at 100 µM in competition with biotinylated VEGF (btVEGF). After additional washing steps, the remaining btVEGF was detected by chemiluminescence, via an HRP-conjugated streptavidin.
The 96-well plates were coated with humanized extracellular domains (ECD) of VEGFR-1 (R&D Systems, Abingdon, UK) in PBS (20 ng/well) overnight at 4 °C. On the following day, the plates were washed with 250 µL wash buffer (PBS containing 0.1% (v/v) Tween 20) three times and treated with blocking buffer (PBS containing 3% (w/v) BSA) at 37 °C for 2 h, followed by three washes with wash buffer. 50 µL of peptides solution at twice the desired final concentration (in PBS containing 2% DMSO) were added in triplicate wells and the plate was kept at 37 °C for 1 h. A solution of btVEGF-A165 (R & D Systems, Abingdon, UK) at twice the desired final concentration (typically 100 pM) in 50 µL PBS was added. After 2 h incubation, the plates were washed four times with wash buffer. 100 µL of Streptavidin‑Horseradish Peroxidase (Amersham, Pittsburgh, PA, USA) diluted 1:8000 w in PBS containing 0.1% (v/v) Tween 20 and 0.3% (w/v) BSA) were then added to each well to detect the btVEGF‑A165 bound to the ECD of VEGFR1. After 45 min incubation at 37 °C and in the dark, the plate was washed five times with wash buffer. A volume of 100 µL of SuperSignal West Pico Chemioluminescent Substrate (Pierce, Rockford, IL, USA) was added and the chemiluminescence was quantified with a Perkin Elmer Victor 2 spectrophotometer (Victor Wallac Multilabel reader). The percentages of displacement were calculated by the following formula: 100 × [1 − (S − NS)/(MS − NS)] where S is the signal measured, NS is the nonspecific binding signal defined as the signal measured in the absence of coated receptor on the microplate, and MS is the maximum binding signal obtained with (bt)-VEGF-A165 without competitor.

[2] = water solubility (qualitative); format: physicochemical; conditions: qualitative comparison between peptides
[3] = tested on: D2 domain of VEGFR1; conditions: shares with VEGF a common binding site on D2 (His223, Arg224); cited from earlier work
From the text: In the laboratory, a series of cyclic octapeptides has been developed.

Chain of recombinant human VEGFR1 extracellular domains (ECD) (P17948 27-758 limits assumed): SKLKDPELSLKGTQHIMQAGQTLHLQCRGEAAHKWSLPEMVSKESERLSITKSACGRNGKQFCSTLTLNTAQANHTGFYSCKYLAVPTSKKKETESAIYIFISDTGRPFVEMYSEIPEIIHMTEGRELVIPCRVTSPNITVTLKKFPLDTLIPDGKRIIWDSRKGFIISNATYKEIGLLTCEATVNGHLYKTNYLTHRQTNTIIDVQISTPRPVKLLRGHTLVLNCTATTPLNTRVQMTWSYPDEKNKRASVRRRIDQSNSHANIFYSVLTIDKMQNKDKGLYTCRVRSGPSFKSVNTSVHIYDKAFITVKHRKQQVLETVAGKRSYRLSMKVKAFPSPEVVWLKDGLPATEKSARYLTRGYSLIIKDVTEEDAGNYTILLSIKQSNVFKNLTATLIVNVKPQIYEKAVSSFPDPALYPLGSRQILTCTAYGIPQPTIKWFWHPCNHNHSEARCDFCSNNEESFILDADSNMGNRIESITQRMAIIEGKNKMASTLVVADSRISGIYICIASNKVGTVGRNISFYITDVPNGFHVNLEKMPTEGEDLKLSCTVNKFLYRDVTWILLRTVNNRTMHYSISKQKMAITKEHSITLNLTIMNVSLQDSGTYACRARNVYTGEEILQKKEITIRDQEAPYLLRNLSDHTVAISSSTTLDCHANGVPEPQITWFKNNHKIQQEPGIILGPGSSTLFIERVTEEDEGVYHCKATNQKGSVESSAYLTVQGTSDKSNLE

For `COc1ccc2c(CNC(=O)[C@@H]3CCC(=O)N[C@@H](Cc4ccc(O)cc4)C(=O)N[C@@H](CCCCN)C(=O)N[C@@H](CC(=O)O)C(=O)N[C@@H](CCC(=O)O)C(=O)NCC(=O)N[C@@H](CC(C)C)C(=O)N[C@@H](CCC(=O)O)C(=O)N3)cc(=O)oc2c1` [Peptide 19] (YKDEGLEE-X1; lactam N-8), which “Displacement (%) 30 µM” value ([1]; dose dependence, peptide 30 µM, NA means no activity) is on record?
The value was 11%.

What about the “Displacement (%) 50 µM” value ([1]; dose dependence, peptide 50 µM) of the same molecule?
The value was 41%.

What about the “Displacement (%) 100 µM” value ([1]; dose dependence, peptide 100 µM) of the same molecule?
The value was 68%.

And the “Displacement 100 µM (%)” value ([1]; percentage of btVEGF displaced by peptide at 100 µM, btVEGF-A165 typically 100 pM, chemiluminescence, same btVEGF batch)?
The value was 68%.

And the water solubility [2]?
The water solubility was “slightly less water soluble than 15 and 16”.

For “c[YYDEGLEE]-NH2 (sidechain bridge or staple) [Peptide 1]”, which “interaction with the D2 domain of VEGFR1 by NMR” value [3] is on record?
The value was “interacts”.
